# Measurements published in patent publication US6472348B1, “Pyridone derivatives and herbicides” (Kumiai Chemical Industry Co., Ltd., priority 1996, dated 2002).
# Columns and labels:
# [1] = system: slender amaranth (Am); experiment: Test Example 11: crop plant selectivity by upland field foliage treatment (corn), herbicidal effects; type: in vivo; parameters: scale not given here; conditions: dose 1.6 g ai/10a
# Description: (§1) (Test on Crop Plant Selectivity by Upland Field Foliage Treatment)
# (§2) In a plastic pot (surface area: 600 cm^2) filled with sand, corn (Ze), pale smartweed (Po), slender amaranth (Am), common lambsquarters (Ch) and China jute (Ab) were sown and cultured in a green house for 2 weeks. […] The plants were then cultured in a green house, and the evaluation of the herbicidal effects and phytotoxicity was conducted on the 14th day after the treatment in accordance with the standards as identified in Table 47.
# [2] = system: pale smartweed (Po); experiment: as above; type: in vivo; parameters: scale not given here; conditions: dose 1.6 g ai/10a
# Description: as §1, §2
# [3] = system: common lambsquarters (Ch); experiment: as above; type: in vivo; parameters: scale not given here; conditions: dose 1.6 g ai/10a
# Description: as §1, §2
# [4] = system: China jute (Ab); experiment: as above; type: in vivo; parameters: scale not given here; conditions: dose 1.6 g ai/10a
# Description: as §1, §2
# [5] = system: corn (Ze); experiment: Test Example 11: crop plant selectivity by upland field foliage treatment (corn), phytotoxicity; conditions: dose 1.6 g ai/10a
# Description: as §1, §2
# [6] = system: slender amaranth (Am); experiment: Test Example 9: crop plant selectivity by upland field foliage treatment (wheat), herbicidal effects; type: in vivo; parameters: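 grade of growth control; 5 = at least 90%; 4 = 70 to 90%; 3 = 50 to 70%; 2 = 30 to 50%; 1 = 10 to 30%; 0 = under 10%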; conditions: dose 1.6 g ai/10a, 14th day after treatment
# Procedure, shortened: (§3)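 Read-out: weed control and wheat injury, rated by a defined scoring standard 14 days after foliar application.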
# [7] = system: pale smartweed (Po); experiment: as above; type: in vivo; parameters: scale not given here; conditions: dose 1.6 g ai/10a, 14th day after treatment
# Procedure, shortened: as §3
# [8] = system: common lambsquarters (Ch); experiment: as above; type: in vivo; parameters: scale not given here; conditions: dose 1.6 g ai/10a, 14th day after treatment
# Procedure, shortened: as §3
# [9] = system: China jute (Ab); experiment: as above; type: in vivo; parameters: scale not given here; conditions: dose 1.6 g ai/10a, 14th day after treatment
# Procedure, shortened: as §3
# [10] = system: wheat (Tr); experiment: Test Example 9: crop plant selectivity by upland field foliage treatment (wheat), phytotoxicity; conditions: dose 1.6 g ai/10a, 14th day after treatment;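 note: grade of crop injury; 5 = at least 90%; 4 = 70 to 90%; 3 = 50 to 70%; 2 = 30 to 50%; 1 = 10 to 30%; 0 = under 10%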
# Procedure, shortened: as §3
# [11] = system: slender amaranth (Am); experiment: Test Example 3: herbicidal effects by upland field foliage treatment; type: in vivo; parameters: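 grade of growth control; 5 = at least 90%; 4 = 70 to 90%; 3 = 50 to 70%; 2 = 30 to 50%; 1 = 10 to 30%; 0 = under 10%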
# Procedure, shortened: (§4)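 Scores reflect herbicidal effect graded by standards on the 14th day after foliage treatment of weeds grown 2 weeks in a greenhouse.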
# [12] = system: rice flatsedge (Ci); experiment: as above; type: in vivo; parameters: scale not given here
# Procedure, shortened: as §4
# [13] = system: pale smartweed (Po); experiment: as above; type: in vivo; parameters: scale not given here
# Procedure, shortened: as §4
# [14] = system: Diaitaria ciliaris (Di); experiment: as above; type: in vivo; parameters: scale not given here
# Procedure, shortened: as §4
# [15] = system: common lambsquarters (Ch); experiment: as above; type: in vivo; parameters: scale not given here
# Procedure, shortened: as §4
# [16] = system: barnyardgrass (Ec); experiment: as above; type: in vivo; parameters: scale not given here
# Procedure, shortened: as §4
# [17] = system: slender amaranth (Am); experiment: Test Example 2: herbicidal effects by upland field soil treatment; type: in vivo; conditions: 100 g of the active ingredient per 10 ares;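 note: grade of growth control; 5 = at least 90%; 4 = 70 to 90%; 3 = 50 to 70%; 2 = 30 to 50%; 1 = 10 to 30%; 0 = under 10%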
# Source text: (§5) (Test on Herbicidal Effects by Upland Field Soil Treatment)
# [18] = system: rice flatsedge (Ci); experiment: as above; type: in vivo; conditions: 100 g of the active ingredient per 10 ares
# Source text: as §5
# [19] = system: pale smartweed (Po); experiment: as above; type: in vivo; conditions: 100 g of the active ingredient per 10 ares
# Source text: as §5
# [20] = system: common lambsquarters (Ch); experiment: as above; type: in vivo; conditions: 100 g of the active ingredient per 10 ares
# Source text: as §5
# [21] = system: barnyardgrass (Ec); experiment: as above; type: in vivo; conditions: 100 g of the active ingredient per 10 ares
# Source text: as §5
# [22] = system: Digitaria ciliaris (Di); experiment: as above; type: in vivo; conditions: 100 g of the active ingredient per 10 ares;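 note: grade of growth control; 5 = at least 90%; 4 = 70 to 90%; 3 = 50 to 70%; 2 = 30 to 50%; 1 = 10 to 30%; 0 = under 10%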
# Source text: as §5
# [23] = system: monochoria (Mo); experiment: Test Example 1: herbicidal effects by paddy field soil treatment; type: in vivo; conditions: 100 g of the active ingredient per 10 ares, 21st day after the application, index 0-5 of Table 47;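 note: grade of growth control; 5 = at least 90%; 4 = 70 to 90%; 3 = 50 to 70%; 2 = 30 to 50%; 1 = 10 to 30%; 0 = under 10%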
# Procedure, shortened: (§6)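 Greenhouse pot test in flooded paddy soil, dosed at 100 g a.i. per 10 ares; effect scored on day 21.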
# [24] = system: bulrush (Sc); experiment: as above; type: in vivo; conditions: 100 g of the active ingredient per 10 ares, 21st day after the application, index 0-5 of Table 47
# Procedure, shortened: as §6
# [25] = system: barnyardgrass (Ec); experiment: as above; type: in vivo; conditions: 100 g of the active ingredient per 10 ares, 21st day after the application, index 0-5 of Table 47
# Procedure, shortened: as §6
# [26] = upland field foliage treatment (corn test), 14th day after treatment
# [27] = upland field foliage treatment, 14th day after treatment
# [28] = 100 g of the active ingredient per 10 ares, evaluated on the 14th day after treatment
# [29] = 21st day after the application, index 0-5 of Table 47
# [30] = evaluated on the 21st day after application
# [31] = 100 g active ingredient per 10 ares, evaluated 14th day after treatment
# [32] = slender amaranth, foliage treatment, evaluated on 14th day after treatment, index per Table 47
# [33] = pale smartweed, foliage treatment, evaluated on 14th day after treatment, index per Table 47
# [34] = common lambsquarters, foliage treatment, evaluated on 14th day after treatment, index per Table 47
# [35] = China jute, foliage treatment, evaluated on 14th day after treatment, index per Table 47
# [36] = corn, foliage treatment, evaluated on 14th day after treatment, index per Table 47
SMILES,"Herbicidal effects Am [1, 26]","Herbicidal effects Po [2, 26]","Herbicidal effects Ch [3, 26]","Herbicidal effects Ab [4, 26]","Phytotoxicity Ze [5, 27]",Herbicidal effects Am [6],Herbicidal effects Po [7],Herbicidal effects Ch [8],Herbicidal effects Ab [9],Phytotoxicity Tr [10],"Herbicidal effects Am [11, 28]","Herbicidal effects Ci [12, 28]","Herbicidal effects Po [13, 28]","Herbicidal effects Di [14, 28]","Herbicidal effects Ch [15, 28]","Herbicidal effects Ec [16, 28]","Herbicidal effects Am [17, 29]",Herbicidal effects Mo [23],Herbicidal effects Sc [24],Herbicidal effects Ec [25],further results
CCOC(=O)C(CC)Sc1cc(-c2ccc(C(F)(F)F)n(C)c2=O)c(Cl)cc1Cl (racemic) [1-125],5,5,5,5,2,5,5,5,5,2,5,5,5,5,5,5,–,–,–,–,–
C#CC(C)Oc1cc(-c2ccc(C(F)(F)F)n(C)c2=O)c(Cl)cc1Cl (stereo not drawn) [1-31],5,5,5,5,2,5,5,5,5,2,–,–,–,–,–,–,–,–,–,–,–
COCOc1cc(-c2ccc(C(F)(F)F)n(C)c2=O)c(Cl)cc1Cl [1-38],5,5,5,5,2,5,5,5,5,2,5,5,5,5,5,5,5,5,5,5,"Herbicidal effects Ci [18, 29]: 5; Herbicidal effects Po [19, 29]: 5; Herbicidal effects Ch [20, 29]: 5; Herbicidal effects Ec [21, 29]: 5; Herbicidal effects Di [22, 29]: 5"
C#CCNc1cc(-c2ccc(C(F)(F)F)n(C)c2=O)c(F)cc1Cl [1-62],5,5,5,5,2,5,5,5,5,2,5,5,5,5,5,5,5,5,5,5,"Herbicidal effects Ci [18, 29]: 5; Herbicidal effects Po [19, 29]: 5; Herbicidal effects Ch [20, 29]: 5; Herbicidal effects Ec [21, 29]: 5; Herbicidal effects Di [22, 29]: 5"
C#CCOc1cc(-c2ccc(C(F)(F)F)n(C)c2=O)ccc1Cl [1-106],5,5,5,5,2,5,5,5,5,2,5,5,5,5,5,5,5,5,5,5,"Herbicidal effects Ci [18, 29]: 5; Herbicidal effects Po [19, 29]: 5; Herbicidal effects Ch [20, 29]: 5; Herbicidal effects Ec [21, 29]: 5; Herbicidal effects Di [22, 29]: 5"
Cn1c(C(F)(F)F)ccc(-c2cc(C(=O)OCCBr)c(Cl)cc2F)c1=O [1-134],5,5,5,5,2,5,5,5,5,2,5,5,5,5,5,5,5,5,5,5,"Herbicidal effects Ci [18, 29]: 5; Herbicidal effects Po [19, 29]: 5; Herbicidal effects Ch [20, 29]: 5; Herbicidal effects Ec [21, 29]: 5; Herbicidal effects Di [22, 29]: 5"
Cn1c(C(F)(F)F)ccc(-c2cc(OC3CCOC3)c(Cl)cc2F)c1=O (stereo not drawn) [1-162],5,5,5,5,2,5,5,5,5,2,5,5,5,5,5,5,5,5,5,5,"Herbicidal effects Ci [18, 29]: 5; Herbicidal effects Po [19, 29]: 5; Herbicidal effects Ch [20, 29]: 5; Herbicidal effects Ec [21, 29]: 5; Herbicidal effects Di [22, 29]: 5"
CC(C#N)Oc1cc(-c2ccc(C(F)(F)F)n(C)c2=O)c(F)cc1Cl (stereo not drawn) [1-176],5,5,5,5,1,5,5,5,5,1,5,5,5,5,5,5,–,5,5,5,"Herbicidal effects Am [17, 30]: 5; Herbicidal effects Ci [18, 30]: 5; Herbicidal effects Po [19, 30]: 5; Herbicidal effects Ch [20, 30]: 5; Herbicidal effects Ec [21, 30]: 5; Herbicidal effects Di [22, 30]: 5"
C=CCN1C(=O)COc2ccc(-c3ccc(C(F)(F)F)n(C)c3=O)cc21 [2-31],5,5,5,5,2,5,5,5,5,2,–,–,–,–,–,–,–,5,5,5,"Herbicidal effects Am [17, 30]: 5; Herbicidal effects Ci [18, 30]: 5; Herbicidal effects Po [19, 30]: 5; Herbicidal effects Ch [20, 30]: 5; Herbicidal effects Ec [21, 30]: 5; Herbicidal effects Di [22, 30]: 5; Herbicidal effects Am [11, 31]: 5; Herbicidal effects Ci [12, 31]: 5; Herbicidal effects Po [13, 31]: 5; Herbicidal effects Di [14, 31]: 5; Herbicidal effects Ch [15, 31]: 5; Herbicidal effects Ec [16, 31]: 5"
CCOC(=O)CN1C(=O)COc2cc(F)c(-c3ccc(C(F)(F)F)n(C)c3=O)cc21 [Compound 2-18],5,5,5,5,2,5,5,5,5,2,–,–,–,–,–,–,–,5,5,5,–
CC(C)OCc1cc2c(-c3ccc(C(F)(F)F)n(C)c3=O)c(F)cc(Cl)c2o1 [Compound 4-33],–,–,–,–,–,5,5,5,5,2,–,–,–,–,–,–,–,5,5,5,"Herbicidal effects Am [1, 32]: 5; Herbicidal effects Po [2, 33]: 5; Herbicidal effects Ch [3, 34]: 5; Herbicidal effects Ab [4, 35]: 5; Phytotoxicity Ze [5, 36]: 2; Herbicidal effects Am [11, 31]: 5; Herbicidal effects Ci [12, 31]: 5; Herbicidal effects Po [13, 31]: 5; Herbicidal effects Di [14, 31]: 5; Herbicidal effects Ch [15, 31]: 5; Herbicidal effects Ec [16, 31]: 5"
CCC(Br)c1cc2c(-c3ccc(C(F)(F)F)n(C)c3=O)c(F)cc(Cl)c2o1 (stereo not drawn) [Compound 4-38],–,–,–,–,–,5,5,5,5,2,–,–,–,–,–,–,–,–,–,–,"Herbicidal effects Am [1, 32]: 5; Herbicidal effects Po [2, 33]: 5; Herbicidal effects Ch [3, 34]: 5; Herbicidal effects Ab [4, 35]: 5; Phytotoxicity Ze [5, 36]: 2"
